Reference: patent US10413583B2, “Synthetic substrates for enzymes that catalyze reactions of modified cysteines and related methods” (The University of Chicago, priority 2016, dated 2019)
Entries after “also recorded” stand apart in the source; their conditions may differ.

Tests used:
human colon organoids = assay: Epifluorescent imaging of RDP-2 with human colon organoids; type: cell-based; conditions: 40 μM inhibitor 30 min, 5 μM RDP-2
Description: At least 24 h before imaging experiments, cultured colon organoids were split using a 25G needle and 1 mL syringe, pelleted, and 50-100 organoids per well were re-plated in eight-well chambered slides (20 μL droplets/well; 250 μL organoid growth media; Cellvis, Mountain View, Calif., United States of America) for treatment and imaging. 30 min before the addition of RDP-2, the cell culture media was removed and cells were washed with 300 μL of serum-free FluoroBrite DMEM (Gibco, Gaithersburg, Md., United States of America; High Glucose, Glutamax, no FBS). […] After incubation for 10 min at 37° C. and 5% CO2, the cells were washed with 300 μL Live Cell Imaging Solution and 300 μL of Live Cell Imaging Solution containing DMSO or the appropriate inhibitor was added to the cells immediately before images were obtained on an inverted epi-fluorescence microscope (Olympus IX83; Olympus Corporation, Tokyo, Japan) attached with EMCCD camera (Photometrics EVOLVE™ Delta, Photometrics, Tucson, Ariz., United States of America) with 40× oil objective (N/A 1.3) for RDP-2 (excitation filter 1 430/24 nm, dichroic chroma 89007, emission filter 1 470/24 nm, exposure time 150 ms, EM gain 100, excitation filter 2 480/20 nm, dichroic chroma 49014, emission filter 2 575/40 nm, exposure time 75 ms, EM gain 75), brightfield (exposure time 50 ms, EM gain 30). […]

A431 cells = assay: DPP-3 in A431 cells, starvation and EGF stimulation (flow cytometry, microscopy); type: cell-based, human; conditions: A431, starved and non-starved, 1 μM inhibitor, 5 μM DPP-3
Description: Cells were plated on a 10 cm dish with 10 mL of DMEM/High Glucose (10% FBS, 1% P/S, L-Glutamine, Sodium pyruvate) 36-48 hours prior to the day of experiment and maintained at 37° C., 5% CO2 so as to obtain 80-90% confluency. Cells were washed with DPBS and trypsinized with 1 mL 0.05% Trypsin. 5 mL of DMEM/High Glucose (10% FBS, L-Glutamine, Sodium pyruvate) was added and cells were spun down at 1200 rpm for 3 min. Media was discarded and cells were resuspended in 5 mL of Live Cell Imaging Solution and again spun down at 1200 rpm for 3 min. The cells pellets obtained were resuspended in 3-5 mL of Live Cell Imaging Solution and divided into 500 μL aliquots. The aliquots were treated with either 0.2% DMSO carrier or 1 μM of PalmB/ML348 or 1 μM/5 μM of ML349 inhibitor. After 30 min of incubation at room temperature, 1 μL of 2.5 mM DPP-3 in DMSO was added to each aliquot for a final concentration of 5 μM, and the solutions were mixed. After 5 min incubation at room temperature, fluorescence signal in FITC channel was measured for 10000 cells (5000 for HeLa experiments) on a LSR-Fortessa 4-15 HTS (BD digital instrument, 488 nm laser with 530/30 nm filter for FITC; BD, Franklin Lakes, N.J., United States of America). For analyzing DPP2 in HEK293T cells, the aliquots were treated with either 0.2% DMSO carrier or 2 μM of PalmB, 5 or 20 μM of ML348/ML349 and then analyzed by the protocol as mentioned above. Data was analyzed by FlowJo software version 10.0.8. For comparison of A431 starved versus non-starved, parallel 10 cm dishes of A431 cells were plated in 10 mL of DMEM (high glucose, 10% FBS, 1% P/S), and grown for 36 h. The growth media was removed, and replaced by 10 mL of either DMEM (High glucose) with 10% FBS to maintain “growth” conditions, or DMEM (High glucose) without FBS respectively for “starvation” conditions, and incubated for 14 h. After trypsinization, both plates were treated with 5 mL of DMEM (high glucose) for spinning the cells down, and further processing and analysis were performed as described above by flow cytometry.
Parallel 35 mm glass bottom dishes (D35-10-1.5-N; Cellvis, Mountain View, Calif., United States of America) of A431 cells (450,000) were plated in 2 mL of DMEM glutamax (high glucose, 10% FBS, 1% P/S), and grown for 36 h. The growth media was removed, and replaced by 1.5 mL of either DMEM (High glucose) with 10% FBS to maintain “growth” conditions, or DMEM (High glucose) without FBS respectively for “starvation” conditions, and incubated for 24 h. […] For data analysis, the average fluorescence intensity per image in each experimental condition was obtained by selecting ROIs in the brightfield image. For display, the data were normalized to the average fluorescence intensity of the control conditions. […]

Row | SMILES | inhibition / decrease of measured S-depalmitoylation, RDP-2 (human colon organoids) | effect of inhibitor on depalmitoylation signal measured by DPP-3 (A431 cells) | effect of inhibitor on depalmitoylation signal measured by DPP-3 (A431 cells; listed as M348)
1 | O=C(CN1CCN(C(=O)c2ccco2)CC1)Nc1cc(C(F)(F)F)ccc1Cl [ML348] | about 20% | knocks down the depalmitoylation signal | knocked down
2 | CCCCCCCCCC[C@@H]1C(=O)O[C@H]1CCc1ccc(OC)c(OC)c1 [PalmB, palmostatin B] | about 50% | knocked down; also recorded: knocks down the depalmitoylation signal | –
